US20020003114A1, “Partially halogenated hydantoins in papermaking applications” (Lonza Inc.;, priority 2000, published 2002)

Columns and labels:
[1] = system: organisms native to the white water; experiment: Bactericidal efficacy of slimicides in paper mill white water; assay type: cell-based; conditions: Table 8
Method: White water was obtained from a Northeastern paperboard mill. The pH of the white water was about 6.5-7.5. The consistency of the white water was typically 0.1-0.2%. The furnish pulp was approximately 50% mixed, 15% chip, 15% corrugated, and 15% newspaper. The white water contained the sizing alkyl ketene dimer (AKD). The test organisms were those native to the white water.
The slimicide was added at a concentration of from about 15 to about 20 ppm (expressed as Cl2) to the white water. The white water was then incubated for 3 hours at 37° C. The test conditions were based on ASTM E 600-91 and ASTM E 1839-96. Bacterial counts were performed using tryptone glucose extract agar by known pour plate techniques. DIFCO D/E Neutralizing Broth was used as the first serial dilution tube for biocide neutralization.
The bactericidal efficacy of each slimicide in Table 6 was determined according to the procedure described in Example 2, except the incubation time was 30 minutes instead of 3 hours and the initial concentration of slimicide was about 20 ppm (expressed as Cl2).
The bactericidal efficacy rate of each slimicide was determined by dividing the observed log reduction in the bacterial count by the 30 minute contact time. The bactericidal efficacy rate at 2 ppm of slimicide (expressed as C2) was extrapolated from the results for 20 ppm of slimicide (expressed as Cl2) by assuming a first order behavior. […]
The bactericidal efficacy and bacterial efficacy rate of each slimicide in Table 8 below was determined according to the procedure described in Example 5.
The bactericidal efficacy of each slimicide in Table 10 was determined according to the procedure described in Example 2, except the initial concentration of slimicide was about 10 ppm (expressed as Cl2).
The microbiocidal efficacy rate of each slimicide was determined by dividing the observed log reduction in the bacterial count by the 180 minute contact time. The efficacy rate at 2 ppm of slimicide (expressed as Cl2) was extrapolated from the results for 10 ppm of slimicide (expressed as Cl2) by assuming a first order behavior. […]

[2] = Oxidant (halogen) loss rate with performance additive A-PAM; assay type: physicochemical
Method: (§1) 125 mL solutions containing 2.0 ppm (expressed total halogen as Cl2) of Cl0.9-5,5-dimethyl hydantoin, Dantochlor®, sodium hypochlorite, Dantobrom®, or sodium hypobromite and a performance additive described in Table 4 were prepared by mixing the appropriate amounts of the ingredients in tap water at a temperature of about 37° C. and a pH of about 8.
(§2) The degeneration of the performance additives tested was determined by measuring the residual oxidant (halogen) concentrations of the solutions over time as follows. The tests were performed in a water bath maintained at 37° C. and an orbital shaker in order to keep the performance additives dispersed in the solutions. Aliquots were taken at regular intervals over a 30 minute period and measured for residual slimicide concentrations using the standard diethyl-p-phenylene diamine (DPD) methodology described in Palin, A. T., Chemistry and Control of Modem Chlorination, La Motte Chemical (1973). The oxidant (halogen) loss rates were determined from first order linear regression plots of the residual oxidant (halogen) concentrations over time.
(§3) The ratio of bactericidal efficacy to oxidant loss rate was calculated for the slimicides and performance additives in Table 7 based on the results in Tables 5 and 6 above. […]

[3] = Oxidant (halogen) loss rate with performance additive PAE; assay type: physicochemical
Method: as §1, §2, §3

[4] = Oxidant (halogen) loss rate with performance additive AKD; assay type: physicochemical
Method: as §1, §2, §3

[5] = Oxidant (halogen) loss rate with performance additive C-Starch; assay type: physicochemical
Method: as §1, §2, §3

[6] = Oxidant (halogen) loss rate with performance additive C-PAM; assay type: physicochemical
Method: as §1, §2, §3

[7] = Table 9, extrapolated rate at 2 ppm (Table 8) divided by oxidant loss rate (Table 5)

[Na+].[O-]Br [NaOBr, Sodium hypobromite]
Bactericidal Efficacy Rate (log cfu/ml reduction per minute) ([1]; 20 ppm slimicide, log reduction divided by 30 minute contact time): 0.002 log cfu/ml reduction per minute | Extrapolated Bactericidal Efficacy Rate (at 2 ppm of Slimicide) (log cfu/ml reduction per minute) ([1]; extrapolated from 20 ppm to 2 ppm assuming first order (one-tenth)): 0.0002 log cfu/ml reduction per minute | Bactericidal Efficacy (log cfu/ml reduction in 30 minutes) ([1]; procedure of Example 5, slimicide about 20 ppm (as Cl2), white water, 30 minutes): 0.07 log cfu/ml reduction | Ratio of Bactericidal Efficacy Rate to Oxidant Loss Rate, A-PAM [2, 7]: 0.007 log cfu/ml reduction per ppm | Oxidant (Halogen) Loss Rate, A-PAM ([2]; slimicide 2.0 ppm (as Cl2), A-PAM 50 ppm active, tap water, 37° C., pH about 8, 30 minutes): 0.029 ppm/min | Ratio of Bactericidal Efficacy Rate to Oxidant Loss Rate, PAE [3, 7]: 0.002 log cfu/ml reduction per ppm | Oxidant (Halogen) Loss Rate, PAE ([3]; slimicide 2.0 ppm (as Cl2), PAE 100 ppm active, tap water, 37° C., pH about 8, 30 minutes): 0.103 ppm/min | Ratio of Bactericidal Efficacy Rate to Oxidant Loss Rate, AKD [4, 7]: 0.07 log cfu/ml reduction per ppm | Oxidant (Halogen) Loss Rate, AKD ([4]; slimicide 2.0 ppm (as Cl2), AKD 10 ppm active, tap water, 37° C., pH about 8, 30 minutes): 0.003 ppm/min | Ratio of Bactericidal Efficacy Rate to Oxidant Loss Rate, C-Starch [5, 7]: 0.02 log cfu/ml reduction per ppm | Oxidant (Halogen) Loss Rate, C-Starch ([5]; slimicide 2.0 ppm (as Cl2), C-Starch 100 ppm active, tap water, 37° C., pH about 8, 30 minutes): 0.010 ppm/min | Ratio of Bactericidal Efficacy Rate to Oxidant Loss Rate, C-PAM [6, 7]: 0.008 log cfu/ml reduction per ppm | Oxidant (Halogen) Loss Rate, C-PAM ([6]; slimicide 2.0 ppm (as Cl2), C-PAM 4 ppm active, tap water, 37° C., pH about 8, 30 minutes): 0.025 ppm/min
